One assay has as its system HLA-A*24. Briefly: MHC binding assay by UV-ligand exchange and beta2m ELISA (HLA-A*24). The note with it: peptide exchange yield, binding to HLA-A*24; UV-ligand exchange, beta2m ELISA. On the set-up: species or system human. An excerpt: (§1) Candidate peptides for T cell based therapies according to the present invention were further tested for their MHC binding capacity (affinity). The individual peptide-MHC complexes were produced by UV-ligand exchange, where a UV-sensitive peptide is cleaved upon UV-irradiation, and exchanged with the peptide of interest as analyzed. Only peptide candidates that can effectively bind and stabilize the peptide-receptive MHC molecules prevent dissociation of the MHC complexes. To determine the yield of the exchange reaction, an ELISA was performed based on the detection of the light chain (β2m) of stabilized MHC complexes. The assay was performed as generally described in Rodenko et al. (Rodenko et al., 2006).
(§2) 96 well MAXISorp plates (NUNC) were coated over night with 2 ug/ml streptavidin in PBS at room temperature, washed 4× and blocked for 1 h at 37° C. in 2% BSA containing blocking buffer. Refolded HLA-A*02:01/MLA-001 monomers served as standards, covering the range of 15-500 ng/ml. Peptide-MHC monomers of the UV-exchange reaction were diluted 100 fold in blocking buffer. Samples were incubated for 1 h at 37° C., washed four times, incubated with 2 ug/ml HRP conjugated anti-β2m for 1 h at 37° C., washed again and detected with TMB solution that is stopped with […]. Absorption was measured at 450 nm. Candidate peptides that show a high exchange yield (preferably higher than 50%, most preferred higher than 75%) are generally preferred for a generation and production of antibodies or fragments thereof, and/or T cell receptors or fragments thereof, as they show sufficient avidity to the MHC molecules and prevent dissociation of the MHC complexes.
On the technique in general: In an ELISA, binding on a coated surface is turned into a signal by an enzyme label.

A further assay has as its system CD8+ T cells. Briefly: In vitro T-cell priming assay (aAPCs loaded with peptide/MHC and anti-CD28), pMHC multimer readout. In kind it is cell-based, human. To be noted: for Wells positive [%]: in vitro immunogenicity of HLA class I peptides, peptide specific pMHC multimer staining after three stimulation cycles; for in vitro immunogenicity: Wells: positive wells, HLA-A*02 and HLA-A*24 peptides, healthy donors. From the text:
In order to obtain information regarding the immunogenicity of the TUMAPs of the present invention, the inventors performed investigations using an in vitro T-cell priming assay based on repeated stimulations of CD8+ T cells with artificial antigen presenting cells (aAPCs) loaded with peptide/MHC complexes and anti-CD28 antibody.
In order to perform in vitro stimulations by artificial antigen presenting cells loaded with peptide-MHC complex (pMHC) and anti-CD28 antibody, the inventors first isolated CD8+ T cells from fresh HLA-A*02 leukapheresis products via positive selection using CD8 microbeads (Miltenyi Biotec, Bergisch-Gladbach, Germany) of healthy donors obtained from the University clinics Mannheim, Germany, after informed consent.
PBMCs and isolated CD8+ lymphocytes were incubated in T-cell medium (TCM) until use consisting of RPMI-Glutamax (Invitrogen, Karlsruhe, Germany) supplemented with 10% heat inactivated human AB serum (PAN-Biotech, Aidenbach, Germany), 100 U/ml Penicillin/100 μg/ml Streptomycin (Cambrex, Cologne, Germany), 1 mM sodium pyruvate (CC Pro, Oberdorla, Germany), 20 μg/ml Gentamycin (Cambrex). 2.5 ng/ml IL7 (PromoCell, Heidelberg, Germany) and 10 U/ml IL-2 (Novartis Pharma, Nurnberg, Germany) were also added to the TCM at this step.
Generation of pMHC/anti-CD28 coated beads, T-cell stimulations and readout was performed in a highly defined in vitro system using four different pMHC molecules per stimulation condition and 8 different pMHC molecules per readout condition.
The purified co-stimulatory mouse IgG2a anti human CD28 Ab 9.3 (Jung et al., 1987) was chemically biotinylated using Sulfo-N-hydroxysuccinimidobiotin as recommended by the manufacturer (Perbio, Bonn, Germany). Beads used were 5.6 μm diameter streptavidin coated polystyrene particles (Bangs Laboratories, Illinois, USA).
pMHC used for positive and negative control stimulations were A*0201/MLA-001 (peptide […] (SEQ ID NO. 303) from modified Melan-A/MART-1) and A*0201/DDX5-001 ([…] from DDX5, SEQ ID NO. 304), respectively.
800.000 beads/200 μl were coated in 96-well plates in the presence of 4×12.5 ng different biotin-pMHC, washed and 600 ng biotin anti-CD28 were added subsequently in a volume of 200 μl. Stimulations were initiated in 96-well plates by co-incubating 1×10^6 CD8+ T cells with 2×10^5 washed coated beads in 200 μl TCM supplemented with 5 ng/ml IL-12 (PromoCell) for 3 days at 37° C. Half of the medium was then exchanged by fresh TCM supplemented with 80 U/ml IL-2 and incubating was continued for 4 days at 37° C. This stimulation cycle was performed for a total of three times. For the pMHC multimer readout using 8 different pMHC molecules per condition, a two-dimensional combinatorial coding approach was used as previously described (Andersen et al., 2012) with minor modifications encompassing coupling to 5 different fluorochromes. Finally, multimeric analyses were performed by staining the cells with Live/dead near IR dye (Invitrogen, Karlsruhe, Germany), CD8-FITC antibody clone SK1 (BD, Heidelberg, Germany) and fluorescent pMHC multimers. For analysis, a BD LSRII SORP cytometer equipped with appropriate lasers and filters was used. Peptide specific cells were calculated as percentage of total CD8+ cells. Evaluation of multimeric analysis was done using the FlowJo software (Tree Star, Oregon, USA). In vitro priming of specific multimer+CD8+ lymphocytes was detected by comparing to negative control stimulations.

The target of the next assay is HLA-A*02 (Homo sapiens, UniProt P04439, D140Y/D185E/D98H/E176V/E277Q/G131W/G231S/I119V/I121R/I166T/I218V/L300P/N151K/N90K/P208A/P217A/Q86G/Q94H/R138H/R169H). Briefly: MHC binding assay by UV-ligand exchange and beta2m ELISA (HLA-A*02). To be noted: peptide exchange yield, binding to HLA-A*02; UV-ligand exchange, beta2m ELISA.
Excerpt: as §1, §2

Regarding “167 (NYINRILKL; listed as Homo sapiens) [compound 167]”, in the assay on HLA-A*24, the Peptide exchange entry was “++++ (> = 75% = ++++)”. For the same substance, the “Wells positive [%]” value in the assay with CD8+ T cells is “+ (<20% = +)”.

For the substance “258 (LLSERFINV; listed as Homo sapiens) [compound 258]”, in the assay with HLA-A*02, the Peptide exchange entry is recorded as “++++ (> = 75% = ++++)”.

In the case of “112 (SLGKFTFDV; listed as Homo sapiens) [compound 112]”, in the assay with HLA-A*02, the Peptide exchange entry is “++++ (> = 75% = ++++)”.

In the case of “84 (ALCPRIHEV; listed as Homo sapiens) [compound 84]”, the Peptide exchange result in the assay with HLA-A*02 is listed as “++++ (> = 75% = ++++)”.

Consider “95 (GLLGSLFFL; listed as Homo sapiens) [compound 95]”, for which the Peptide exchange result with HLA-A*02 is listed as “++++ (> = 75% = ++++)”.

On to “14 (ILAKDLFEI; listed as Homo sapiens) [compound 14]”, for which the Peptide exchange result with HLA-A*02 was “++++ (> = 75% = ++++)”.

For “147 (YLMDDTVEI; listed as Homo sapiens) [compound 147]”, the Peptide exchange entry with HLA-A*02 was “++++ (> = 75% = ++++)”.

Take “126 (QMFQYFITV; listed as Homo sapiens) [compound 126]”: the Peptide exchange result with HLA-A*02 is on record as “++++ (> = 75% = ++++)”.

On to “4 (KLMPGTYTL; listed as Homo sapiens) [compound 4]”, for which, in the assay with HLA-A*02, the Peptide exchange result was “++++ (> = 75% = ++++)”. In the assay on CD8+ T cells, the “Wells positive [%]” value is “+ (<20% = +)”.

For the substance “51 (LLFSRLCGA; listed as Homo sapiens) [compound 51]”, the Peptide exchange result in the assay with HLA-A*02 is given as “++++ (> = 75% = ++++)”.

As for “3 (KLEENGDLYL; listed as Homo sapiens) [compound 3]”, the Peptide exchange entry with HLA-A*02 was “++++ (> = 75% = ++++)”.

With “165 (DYTTWTALL; listed as Homo sapiens) [compound 165]”, in the assay on HLA-A*24, the Peptide exchange result is reported as “++++ (> = 75% = ++++)”. The “Wells positive [%]” value in the assay on CD8+ T cells is “+ (<20% = +)”.

For the substance “16 (YTLDIPVLFGV; listed as Homo sapiens) [compound 16]”, the Peptide exchange result in the assay with HLA-A*02 was “++++ (> = 75% = ++++)”.

Turning to “1 (LLYPEPWSV; listed as Homo sapiens) [compound 1]”, the Peptide exchange result with HLA-A*02 is “++++ (> = 75% = ++++)”.

Turning to “129 (RLQDILWFL; listed as Homo sapiens) [compound 129]”, the Peptide exchange entry with HLA-A*02 is reported as “++++ (> = 75% = ++++)”.

As to “248 (YLDRFLAGV; listed as Homo sapiens) [compound 248]”, the Peptide exchange entry with HLA-A*02 was “++++ (> = 75% = ++++)”.

Turning to “125 (SLADYEHFV; listed as Homo sapiens) [compound 125]”, the Peptide exchange result with HLA-A*02 is given as “++++ (> = 75% = ++++)”.

Regarding “23 (SLFSDEFKV; listed as Homo sapiens) [compound 23]”, in the assay with CD8+ T cells, the “Wells positive [%]” value was “++++ (> = 70% = ++++)”.

For the substance “245 (SLLDLPLSL; listed as Homo sapiens) [compound 245]”, the Peptide exchange entry with HLA-A*02 was “++++ (> = 75% = ++++)”.

For the substance “249 (GLCERLVSL; listed as Homo sapiens) [compound 249]”, the Peptide exchange result in the assay with HLA-A*02 is “++++ (> = 75% = ++++)”. Further, the “Wells positive [%]” value in the assay with CD8+ T cells was “+ (<20% = +)”.

Turning to “229 (AILAHLNTV; listed as Homo sapiens) [compound 229]”, the Peptide exchange entry with HLA-A*02 is reported as “++++ (> = 75% = ++++)”.

On to “257 (GLYTDPCGV; listed as Homo sapiens) [compound 257]”, for which, in the assay with HLA-A*02, the Peptide exchange result was “++++ (> = 75% = ++++)”.

Regarding “158 (HYSQELSLLYL; listed as Homo sapiens) [compound 158]”, in the assay on HLA-A*24, the Peptide exchange result is on record as “++++ (> = 75% = ++++)”. Further, in the assay with CD8+ T cells, the “Wells positive [%]” value was “+ (<20% = +)”.

With “163 (DYLKGLASF; listed as Homo sapiens) [compound 163]”, the Peptide exchange result with HLA-A*24 was “++++ (> = 75% = ++++)”. Moreover, in the assay with CD8+ T cells, the “Wells positive [%]” value was “+ (<20% = +)”.

“35 (FLLPFSTVYL; listed as Homo sapiens) [compound 35]”: the “Wells positive [%]” value in the assay on CD8+ T cells is “+ (<20% = +)”.

On to “296 (TYVDSSHTI; listed as Homo sapiens) [compound 296]”, for which the “in vitro immunogenicity: Wells” value in the assay on CD8+ T cells is on record as “+ (<20% = +)”.

Take “269 (YFIDSTNLKTHF; listed as Homo sapiens) [compound 269]”: the “Wells positive [%]” value in the assay on CD8+ T cells is reported as “+ (<20% = +)”.

Consider “133 (ALLPRLHQL; listed as Homo sapiens) [compound 133]”, for which, in the assay with HLA-A*02, the Peptide exchange entry was “++++ (> = 75% = ++++)”.

For “12 (GLLPLLHRA; listed as Homo sapiens) [compound 12]”, the Peptide exchange result in the assay with HLA-A*02 was “++++ (> = 75% = ++++)”. In the assay on CD8+ T cells, the “Wells positive [%]” value is “++++ (> = 70% = ++++)”.

On to “34 (FLLATEVVTV; listed as Homo sapiens) [compound 34]”, for which, in the assay with HLA-A*02, the Peptide exchange entry was “++++ (> = 75% = ++++)”.

On to “300 (AYVLRLETL; listed as Homo sapiens) [compound 300]”, for which the “in vitro immunogenicity: Wells” value in the assay with CD8+ T cells is given as “+ (<20% = +)”.

Consider “5 (GIVAHIQEV; listed as Homo sapiens) [compound 5]”, for which the “Wells positive [%]” value with CD8+ T cells is “+ (<20% = +)”.

“268 (QYLGQIQHI; listed as Homo sapiens) [compound 268]”: the “Wells positive [%]” value in the assay on CD8+ T cells is listed as “+ (<20% = +)”.

With “159 (LYNKGFIYL; listed as Homo sapiens) [compound 159]”, in the assay on HLA-A*24, the Peptide exchange entry is on record as “++++ (> = 75% = ++++)”. In the assay with CD8+ T cells, the “Wells positive [%]” value is given as “++++ (> = 70% = ++++)”.

“204 (TYELRYFQI; listed as Homo sapiens) [compound 204]”: the Peptide exchange entry in the assay on HLA-A*24 is reported as “++++ (> = 75% = ++++)”. Further, the “Wells positive [%]” value in the assay with CD8+ T cells was “+ (<20% = +)”.

“92 (GLLFSLRSV; listed as Homo sapiens) [compound 92]”: in the assay with HLA-A*02, the Peptide exchange result is recorded as “++++ (> = 75% = ++++)”.

With “298 (RYLEGTSCI; listed as Homo sapiens) [compound 298]”, the “in vitro immunogenicity: Wells” value in the assay with CD8+ T cells is recorded as “+ (<20% = +)”.

In the case of “141 (FLDKVLVAA; listed as Homo sapiens) [compound 141]”, the “Wells positive [%]” value in the assay on CD8+ T cells was “+ (<20% = +)”.

“149 (ILNTHITEL; listed as Homo sapiens) [compound 149]”: the “Wells positive [%]” value with CD8+ T cells is given as “+ (<20% = +)”.

“285 (HYPPVQVLF; listed as Homo sapiens) [compound 285]”: the “Wells positive [%]” value in the assay on CD8+ T cells is “+ (<20% = +)”.

In the case of “153 (FISERVEVV; listed as Homo sapiens) [compound 153]”, the Peptide exchange entry with HLA-A*02 is on record as “++++ (> = 75% = ++++)”.

The values are drawn from patent publication US10279022B2, “Peptides and combination of peptides for use in immunotherapy against various cancers” (immatics biotechnologies GmbH, priority 2015, dated 2019).
